In data set [1] the test system is patient with diminished ovarian reserve. Kind of data set: Case of a low-responder patient: FSH needed to ovulate, with and without estradiol patch and low dose hCG. The data set is classed as in vivo, human. The protocol: To ovulate a single follicle, they required a follicle stimulating hormone level of 18 IU/L, with a typical threshold value of FSH required for a regularly cycling young and healthy woman in the range of 5 IU/L or less. This patient was also characterized by their physician as a low responder to FSH, which refers to a patient who requires high follicle stimulating hormone doses to ovulate even a single follicle. […] In the first two menstrual cycles, the patient was treated using the method as described supra, with a high dose follicle stimulating hormone (FSH) at a total dosage of FSH at about 5,000 IU across the cycle with very high threshold dosage and threshold peak follicle stimulating hormone levels like that of an AMA person with high FSH, in the first cycle and second cycle to induce follicle growth to the ovulatory stage. In the third consecutive treatment cycle, the above-described regimen was supplemented with an estradiol patch delivering 17-beta estradiol for several days until the commencement of stimulation with FSH medication. The patch was then continued daily during the period of stimulated until the evening before expected hCG injection, when it was removed. This was designed to coincide to approximate the timing of the estradiol surge. […]

Data set [2] deals with follicular growth to ovulation. As to conditions: Schoemaker study; cited from earlier work.
For data set [3] the following is noted: woman given daily FSH injections at a given dosage; cited from earlier work.

With follicle stimulating hormone, in data set [1] (COHS cycle, severe GnRHa suppression), the “follicle stimulating hormone level required to ovulate a single follicle” value is given as 18 IU/L. Besides, the “total dosage of FSH across the cycle to induce follicle growth to the ovulatory stage” value in data set [1] (first and second cycles, without estradiol and hCG supplementation) is given as “about 5,000 IU”. Further, the “threshold level of serum FSH for follicular growth to ovulation” value in data set [2] is recorded as 7.8 IU. Besides, in data set [3], the “time for steady-state levels of FSH to be established” value is listed as 4 days.

Values taken from patent US20150273020A1, “Hormone Normalization Therapy and Uses Therefor” (priority 2007, published 2015).
